The values below come from patent publication US7208517B1, “Endothelin antagonists” (Abbott Labortories, priority 1994, dated 2007).

This test has as its target T1, ETA Receptor (Rattus norvegicus, UniProt P26684).
T1 construct: endogenous in cells; host or cells: MMQ rat pituitary cells (membranes)
T1 sequence (P26684 21-426): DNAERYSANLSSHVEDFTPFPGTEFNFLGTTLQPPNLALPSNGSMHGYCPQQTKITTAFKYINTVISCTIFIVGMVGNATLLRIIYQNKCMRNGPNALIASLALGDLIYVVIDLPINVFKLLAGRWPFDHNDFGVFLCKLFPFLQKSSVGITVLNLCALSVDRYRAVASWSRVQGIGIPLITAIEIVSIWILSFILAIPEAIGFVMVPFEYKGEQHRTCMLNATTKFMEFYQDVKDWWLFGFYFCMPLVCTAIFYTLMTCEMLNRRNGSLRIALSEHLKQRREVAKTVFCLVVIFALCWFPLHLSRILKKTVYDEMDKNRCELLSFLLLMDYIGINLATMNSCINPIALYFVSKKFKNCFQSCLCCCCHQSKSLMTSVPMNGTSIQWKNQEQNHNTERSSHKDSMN
Nature of the test: [125I]ET-1 binding to membranes from MMQ cells (ETA receptor binding assay, Table 4). The note with it: test compound at 1 μM, 0.1 nM [125I]ET-1, MMQ cell membranes, 4 hours at 25° C.; for inhibition at 1 µM: read-out: % Inhibition of ETA at 1 μM.

Turning to `COc1ccc(C2C(C(=O)O)C(c3ccc4c(c3)OCO4)CN2Cc2ccc(F)cc2)cc1` (stereo not drawn) [Example 3, trans,trans-2-(4-Methoxyphenyl)-4-(1,3-benzodioxol-5-yl)-1-(4-fluorobenzyl)-pyrrolidine-3-carboxylic acid], the “% Inhibition of ETA at 1 μM” value was found to be 42.2%.

As for `CCCN(C)C(=O)CN1CC(c2ccc3c(c2)CCO3)C(C(=O)O)C1c1ccc(OC)cc1` (stereo not drawn) [Example 52, trans,trans-2-(4-Methoxyphenyl)-4-(2,3-dihydrobenzofuran-5-yl)-1-(N-methyl-N-propyl)aminocarbonylmethyl)-pyrrolidine-3-carboxylic acid], the “% Inhibition of ETA at 1 μM” value worked out at 84.0%.

Regarding `CCCCN(CCCC)C(=O)CN1CC(c2ccc(F)c(F)c2)C(C(=O)O)C1c1ccc(OC)cc1` (stereo not drawn) [Example 150, trans,trans-1-(N,N-Di(n-butyl)aminocarbonylmethyl)-2-(4-methoxyphenyl)-4-(3,4-difluorophenyl)pyrrolidine-3-carboxylic acid], the “% Inhibition of ETA at 1 μM” value is 93.6%.

For the molecule `CCCN(CCN1CC(c2ccc3c(c2)OCO3)C(C(=O)O)C1c1ccc(OC)cc1)S(=O)(=O)c1ccc(C)cc1` (stereo not drawn) [Example 129, trans,trans-1-(2-(N-Propyl-N-(4-methylbenzenesulfonyl)amino)ethyl)-2-(4-methoxyphenyl)-4-(1,3-benzodioxol-5-yl)pyrrolidine-3-carboxylic acid], the “% Inhibition of ETA at 1 μM” value is on record as 100.1%.

As to `CCCCOCCN1CC(c2ccc3c(c2)OCO3)C(C(=O)O)C1c1ccc(OC)cc1` (stereo not drawn) [Example 23, trans,trans-2-(4-Methoxyphenyl)-4-(1,3-benzodioxol-5-yl)-1-(2-butoxyethyl)-pyrrolidine-3-carboxylic acid], the “% Inhibition of ETA at 1 μM” value came to 85.9%.

With `COc1ccc(C2C(C(=O)O)C(c3ccc4c(c3)OCO4)CN2CC(N)=O)cc1` (stereo not drawn) [Example 2, trans,trans-2-(4-Methoxyphenyl)-4-(1,3-benzodioxol-5-yl)-1-(aminocarbonylmethyl)-pyrrolidine-3-carboxylic acid], the “% Inhibition of ETA at 1 μM” value is on record as 58.4%.

As for `CCCCN(CCCC)C(=O)C(C)N1CC(c2ccc3c(c2)OCO3)C(C(=O)O)C1c1ccc(OC)cc1` (racemic) [Example 91C, trans,trans-2-(4-Methoxyphenyl)-4-(1,3-benzodioxol-5-yl)-1-((N,N-dibutylamino)carbonyl-1-(RS)-ethyl)pyrrolidine-3-carboxylic acid], the “% Inhibition of ETA at 1 μM” value is reported as 91.6%.

With `CCCCN(CCCC)C(=O)CN1CC(c2ccc3c(c2)OCO3)C(C(=O)O)C1C(C)C` (stereo not drawn) [Example 157, trans,trans-1-(N,N-Di(n-butyl)aminocarbonylmethyl)-2-(isopropyl)-4-(1,3-benzodioxol-5-yl)pyrrolidine-3-carboxylic acid], the “% Inhibition of ETA at 1 μM” value came to 83.8%.

Take `CCCCN(CCCC)C(=O)CN1CC(c2ccc3c(c2)OCC3)C(C(=O)O)C1c1ccc(OC)cc1` (stereo not drawn) [Example 141, trans,trans-1-(N,N-Di(n-butyl)aminocarbonylmethyl)-2-(4-methoxyphenyl)-4-(6-benzo-2,3-dihydrofuranyl)pyrrolidine-3-carboxylic acid]: the “% Inhibition of ETA at 1 μM” value is 92.8%.

In the case of `COc1ccc(C2C(C(=O)O)C(c3ccc4c(c3)OCO4)CN2CC(=O)N(C2CCCCC2)C2CCCCC2)cc1` (stereo not drawn) [Example 311, trans—trans-2-(4-Methoxyphenyl)-4-(1,3-benzodioxol-5-yl)-1-[N,N-dicyclohexylaminocarbonylmethyl]-pyrrolidine-3-carboxylic acid], the “% Inhibition of ETA at 1 μM” value is on record as 92.3%.

For `CCCCCCN(C)C(=O)CN1CC(c2ccc3c(c2)OCO3)C(C(=O)O)C1c1ccc(OC)cc1` (stereo not drawn) [Example 42, trans,trans-2-(4-Methoxyphenyl)-4-(1,3-benzodioxol-5-yl)-1-(N-methyl-N-(n-hexyl)aminocarbonylmethyl)-pyrrolidine-3-carboxylic acid], the “% Inhibition of ETA at 1 μM” value amounted to 95.2%.

For `CCC[C@H](C(=O)N(CCC)CCC)N1C[C@H](c2ccc3c(c2)OCO3)[C@H](C(=O)O)[C@H]1c1ccc(OC)cc1` [Example 76, (2S,3S,4S)-2-(4-Methoxyphenyl)-4-(1,3-benzodioxol-5-yl)-1-((1R)-1-(N,N-dipropylaminocarbonyl)-1-butyl)pyrrolidine-3-carboxylic acid], the inhibition at 1 µM is 93.1%.

With `COc1ccc(C2C(C(=O)O)C(c3ccc4c(c3)OCO4)CN2CC(=O)N2CC[C@@H]3CCCC[C@H]3C2)cc1` (relative stereo) [Example 293, trans—trans-2-(4-Methoxyphenyl)-4-(1,3-benzodioxol-5-yl)-1-[decahydroisoquinolin-2-carbonylmethyl]-pyrrolidine-3-carboxylic acid], the “% Inhibition of ETA at 1 μM” value is 89.8%.

As to `COc1ccc(C2C(C(=O)O)C(c3ccc4c(c3)OCO4)CN2CC(=O)N(C)c2ccccc2)cc1` (stereo not drawn) [Example 45, trans,trans-2-(4-Methoxyphenyl)-4-(1,3-benzodioxol-5-yl)-1-(N-methyl-N-phenylaminocarbonylmethyl)-pyrrolidine-3-carboxylic acid], the “% Inhibition of ETA at 1 μM” value was determined as 85.4%.

In the case of `COc1ccc(C2C(C(=O)O)C(c3ccc4c(c3)OCO4)CN2C/C=C/CC(C)C)cc1` (stereo not drawn) [Example 69D, trans,trans-2-(4-Methoxyphenyl)-4-(1,3-benzodioxol-5-yl)-1-N-(trans-5-methylhex-2-enyl)-pyrrolidine-3-carboxylic acid], the “% Inhibition of ETA at 1 μM” value amounted to 37.4%.

On to `CCc1ccccc1C(NC(=O)CN1CC(c2ccc3c(c2)OCO3)C(C(=O)O)C1c1ccc(OCCOC(C)C)cc1)c1ccccc1C` (stereo not drawn) [Example 559, trans,trans-2-[4-(2-Isopropopoxyethoxy)phenyl]-4-(1,3-benzodioxol-5-yl)-1-(N-((1-(o-tolyl)-1-(o-ethylphenyl)-methyl)amino)carbonylmethyl)-pyrrolidine-3-carboxylic acid], for which the “% Inhibition of ETA at 1 μM” value amounted to 5.8%.

With `CCOCCN1CC(c2ccc3c(c2)OCO3)C(C(=O)O)C1c1ccc(OC)cc1` (stereo not drawn) [Example 4, trans,trans-2-(4-Methoxyphenyl)-4-(1,3-benzodioxol-5-yl)-1-(2-ethoxyethyl)-pyrrolidine-3-carboxylic acid], the “% Inhibition of ETA at 1 μM” value came out at 78.2%.

Regarding `CCCN(CCN1CC(c2ccc3c(c2)OCO3)C(C(=O)O)C1c1ccc(OC)cc1)S(=O)(=O)Cc1ccccc1` (stereo not drawn) [Example 133, trans,trans-1-(2-(N-Propyl-N-(benzylsulfonyl)amino)ethyl)-2-(4-methoxyphenyl)-4-(1,3-benzodioxol-5-yl)pyrrolidine-3-carboxylic acid], the “% Inhibition of ETA at 1 μM” value is 88.6%.

With `CCCCN(CCCC)C(=O)CN1CC(c2ccc3c(c2)OCO3)C(C(=O)O)C1[C@H]1CC[C@H](OC)CC1` (stereo partly drawn) [Example 161, trans,trans-1-(N,N-Di(n-butyl)aminocarbonylmethyl)-2-(syn-4-methoxycyclohexyl)-4-(1,3-benzodioxol-5-yl)pyrrolidine-3-carboxylic acid], the “% Inhibition of ETA at 1 μM” value was found to be 93.6%.

For `CCCCN(CCCC)C(=O)CN1CC(c2ccc3c(c2)OCO3)C(C(=O)O)C1c1ccc(C(C)(C)C)cc1` (stereo not drawn) [Example 158, trans,trans-1-(N,N-Di(n-butyl)aminocarbonylmethyl)-2-(4-t-butylphenyl)-4-(1,3-benzodioxol-5-yl)pyrrolidine-3-carboxylic acid], the “% Inhibition of ETA at 1 μM” value was determined as 91.8%.

For `CCOC(=O)N(CC)CCN1CC(c2ccc3c(c2)OCO3)C(C(=O)O)C1c1ccc(OC)cc1` (stereo not drawn) [Example 305, trans—trans-2-(4-Methoxyphenyl)-4-(1,3-benzodioxol-5-yl)-1-[2-(N-ethyl-N-ethoxycarbonylamino)ethyl]-pyrrolidine-3-carboxylic acid], the “% Inhibition of ETA at 1 μM” value was found to be 87.4%.

As to `CCC[C@H](C(=O)N(CCC)CCC)N1C[C@@H](c2ccc3c(c2)OCO3)[C@@H](C(=O)O)[C@@H]1c1ccc(OC)cc1` [Example 75C, (2R,3R,4R)-2-(4-Methoxyphenyl)-4-(1,3-benzodioxol-5-yl)-1-((1R)-1-(N,N-dipropylaminocarbonyl)-1-butyl)pyrrolidine-3-carboxylic acid], the inhibition at 1 µM came to 95.3%.

Regarding `COc1ccc(C2C(C(=O)O)C(c3ccc4c(c3)OCO4)CN2CC(=O)Nc2ccccc2)cc1` (centres unmarked) [Example 495], the inhibition at 1 µM was 95.9%.

For the molecule `COc1ccc(C2C(C(=O)O)C(c3ccc4c(c3)OCO4)CN2CCOc2ccccc2)cc1` (stereo not drawn) [Example 21, trans,trans-2-(4-Methoxyphenyl)-4-(1,3-benzodioxol-5-yl)-1-(2-phenoxyethyl)-pyrrolidine-3-carboxylic acid], the “% Inhibition of ETA at 1 μM” value is given as 56.3%.

In the case of `CCCN(CCN1CC(c2ccc3c(c2)OCO3)C(C(=O)O)C1c1ccc(OC)cc1)S(=O)(=O)c1ccc([N+](=O)[O-])cc1` (stereo not drawn) [Example 298, trans,trans-2-(4-Methoxyphenyl)-4-(1,3-benzodioxol-5-yl)-1-(2-(N-propyl-N-(4-nitrobenzenesulfonyl)amino)ethyl)-pyrrolidine-3-carboxylic acid], the “% Inhibition of ETA at 1 μM” value was 93.3%.

With `COc1ccc(C2C(C(=O)O)C(c3ccc4c(c3)OCO4)CN2CC(=O)N2CCCC2)cc1` (stereo not drawn) [Example 17, trans,trans-2-(4-Methoxyphenyl)-4-(1,3-benzodioxol-5-yl)-1-(pyrrolidin-1-ylcarbonylmethyl)-pyrrolidine-3-carboxylic acid], the “% Inhibition of ETA at 1 μM” value was 73.9%.
